Data reported in patent US20050034187A1, “Modified tet-inducible system for regulation of gene expression in plants” (priority 2000, published 2005).

Legend:
[1] = test system: wild type tet Receptor and TripleX-driven GUS gene (pAC489/pAC499 double transformants); experiment: Seed germination test: induction of GUS gene in seedlings; type: in vivo, tobacco; details: concentration curve, FIG. 19
[2] = test system: TripleX/GUS (pAC499) repressed by nTR under control of different promoters; experiment: Leaf disk induction experiment, GUS assay (double transformants); type: cell-based, tobacco; details: Doxy 5 mg/l, leaf disks, FIG. 2
Source text: FIG. 2—Induction of GUS Gene in Leaves Expressing NLS-tet Receptor Under Control of Different Promoters. Tobacco plants. already expressing pAC499 (TripleX/GUS) were transformed with […] pCAMBIA-based Agro cassettes carrying NPTII marker gene and nTR under control of 35S, 2×35S, A. thaliana HPPD, A. thaliana AHAS, A. thaliana Actin and (OCS)3MAS promoters (pACAG076, 077, 078, 079, 109 and 084), as well as pAC489 (35S/WtTR) to yield a number of transgenic lines. This collection of tobacco plants was tested in a preliminary induction experiment performed on leaf disks: 5-10 mm leaf disks were excised from plants and put into six- or twelve-well plates with liquid MS medium and with or without Doxy 5 mg/l at 5 mg/l. GUS assays were performed with the tissues 5 days later. Each bar represents one sample; numbers above the bars represent magnitude of induction.
FIG. 3—Induction of GUS Gene In Tobacco Leaves Expressing nTR Under Control of Different Promoters. […]
Evaluation of tet inducible system in plant tissues. […] These plates were cultivated in dark on shaker at 90 rpm for 5 days (three weeks for analysis of induction of herbicide resistance) and then used in assays or evaluated visually. […] Three weeks later the induction of regeneration from these disks was evaluated.

[3] = test system: tet-inducible luciferase cassettes with (OCS)3MAS/nTR; experiment: Leaf disk induction assay, luciferase; type: cell-based, tobacco; details: for maximum magnitude of induction (luciferase): FIGS. 14 and 15; for highest induction in some lines (luciferase) / average induction of the reporter (luciferase): doxycycline 5 mg/l
Experimental: FIG. 9—Doxycycline-Mediated Induction of Expression of Luciferase from (OCS)3triplexmin Promoter in Plants is Stronger than TripleX. This experiment was performed in order to test the performance of OCS elements-modified TripleX promoter on the whole plant level. Transgenic tobacco plants carrying (OCS)3MAS/nTR, NPTII, and either of (OCS)3TripleXmin/LUC or TripleX/LUC cassettes were tested in leaf disk induction assays: 5-10 mm leaf disks were excised from plants and put into six- or twelve-well plates with liquid MS medium and with or without Doxy 5 mg/l at 5 mg/l. Luciferase assays were performed with the tissues 5 days later. Each bar represents one sample; numbers above the bars represent magnitude of induction.
FIG. 10—Doxycycline-Mediated Induction of Expression of Luci erase from (OCS)3triplexmin Promoter in Plants is Stronger than TripleX. […] 5-10 mm leaf disks and pieces of roots were excised from plants and put into six- or twelve-well plates with liquid MS medium and with or without Doxy 5 mg/l at 5 mg/l. Luciferase assays were performed with the tissues 5 days later. Each bar represents an average of three samples; numbers above the bars represent magnitude of induction.
FIG. 13—Doxycycline-Mediated Induction of Expression of Luciferase in Inducible Cassettes With or Without One or More MAR Elements. This experiment was performed in order to test the effect of placing inducible luciferase gene between one or more MAR elements. Tobacco plants carrying TripleX/LUC cassette placed between one or more MAR elements, (OCS)3MAS/nTR and NPTII genes (pACAG073 and pACAG081) as well as the reference cassette without one or more MAR elements (pACAG085) were used as donors of 5-10 mm leaf disks which were cultivated in six- or twelve-well plates with liquid MS medium with or without doxycycline 5 mg/l for five days. Samples were assayed for luciferase activity. Each bar represents one sample; numbers above the bars represent magnitude of induction.
FIG. 14—Doxycycline-Mediated Induction of Luciferase in Leaves Carrying Inducible Cassettes With or Without One or More MAR Elements. This experiment was performed in order to test the effect of placing inducible luciferase gene between one or more MAR elements. […] 5-10 mm leaf disks and pieces of roots were excised from plants and put into six- or twelve-well plates with liquid MS medium and with or without Doxy 5 mg/l at 5 mg/l. Luciferase assays were performed with the tissues 5 days later. Each bar represents an average of three samples; numbers above the bars represent magnitude of induction.
Evaluation of tet inducible system in plant tissues. 5-10 mm leaf disks were excised from plants and put into six- or twelve-well plates with liquid MS medium and with or without a tet analog at 5 mg/l. When transgenic plants carried cassettes for induction of herbicide resistance, the medium was supplemented with PURSUIT® at concentration of 1 μM or higher. These plates were cultivated in dark on shaker at 90 rpm for 5 days (three weeks for analysis of induction of herbicide resistance) and then used in assays or evaluated visually. Another test was designed for evaluation of inducible herbicide resistance. In this test leaf disks were placed on MS agar supplemented with. 1 mg/l of BAP and PURSUIT® at concentration of 1 μM or higher either alone or with a tet analog at 5 mg/l. Three weeks later the induction of regeneration from these disks was evaluated.

## C[C@H]1c2cccc(O)c2C(=O)C2=C(O)[C@]3(O)C(=O)C(C(N)=O)=C(O)[C@@H](N(C)C)[C@@H]3[C@@H](O)[C@@H]21 [doxycycline]
[1]
  threshold concentration at which noticeable induction occurred: 0.1 mg/L
[2]; nTR driven by 35S promoter, 5 days
  magnitude of induction of GUS: 26 to 76 fold
[2]; nTR driven by HPPD and AHAS promoters
  maximum induction of GUS: 1.4 fold
[3]; cassettes carrying at least one MAR element, Doxy 5 mg/l
  maximum magnitude of induction (luciferase): 50 fold
[3]; cassettes without MAR element, Doxy 5 mg/l
  maximum magnitude of induction (luciferase): 80 fold
[3]; pACAG085 (TripleX/LUC), Doxy 5 mg/l, leaf disks, FIG. 10
  maximum induction (luciferase): 83 fold
[3]; pACAG113 and pACAG085 plants, FIG. 9
  highest induction in some lines (luciferase): 100 fold
[3]; pACAG113 and pACAG085 plants, leaf disks, FIG. 9
  average induction of the reporter (luciferase): 30 to 40 fold
[3]; pACAG113 cassette ((OCS)3TripleXmin/LUC), Doxy 5 mg/l, leaf disks, FIG. 10
  magnitude of induction for several lines (luciferase): higher than 100 fold
[3]; the other three cassettes with or without MAR, FIG. 13
  average induction of the reporter (luciferase): 30 to 40 fold
[3]; the other three cassettes, FIG. 13
  highest induction in some lines (luciferase): 100 fold
